What all share (experiment): NCI tumour cell line growth inhibition, 48 h
Test [1] deals with SNB-75 CNS.
In test [2] the test system is HCC-2998 colon.
Test [3] concerns SK-OV-3 ovarian.
The subject of test [4] is SF-539 CNS.
Test [5] concerns EKVX NSCLC.
The subject of test [6] is MDA-MB-231 breast.
Test [7] has as its system DU-145 prostate.
For test [8], the system named is PC-3 prostate.
The subject of test [9] is OVCAR-4 ovarian.
Test [10] deals with NCI-H226 lung.

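Grown in 96-well plates, cells were treated for 48 hours with each compound at five concentrations. Insufficient inhibition: endpoint recorded as highest concentration tested. GI50 is the concentration that inhibits growth by half. TGI: total growth inhibition.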 Where only a bound is given, the exact number is not on record here.

On to `COc1cc(C#N)cc(OC)c1OCCOCCOc1c(OC)cc(C#N)cc1OC`, for which the GI50 is more than 100 µM in test [1]; more than 100 µM in test [2]; more than 100 µM in [3]; more than 100 µM in [4]; more than 100 µM in test [5]; 88.9 µM in [6]. The GI50 in test [7] was more than 100 µM; in [8], 31.9 µM; in test [9], 73.5 µM; in [10] it was 81.2 µM. For the same compound, the TGI in test [1], in [2], in test [3], in [4], in test [5] and in test [6] was more than 100 µM in each case. Also, the TGI in test [7], in [8], in test [9] and in test [10] was more than 100 µM throughout.

Take `O=c1cc(-c2ccc(Cl)cc2)[nH]c2ncccc12`: the TGI in [1], in [2], in [3], in test [4], in [5] and in test [6] was more than 100 µM each time. Also, the TGI in test [7], in [8], in test [9] and in test [10] was more than 100 µM in each case. In test [8], the GI50 is 47.6 µM.

With `CCOC(=O)/C(=C/c1ccc([N+](=O)[O-])cc1)C(=O)c1ccccc1`, the GI50 in [1] is 1.72 µM; in test [2], 1.87 µM; in [3], 11.5 µM; in test [4], 1.82 µM; in test [5], 4.88 µM; in [6], 2.34 µM. The GI50 is 2.08 µM in test [7], 2.46 µM in [8], 3.44 µM in test [9] and 2.57 µM in [10]. Also, the TGI in test [1] came out at 4.22 µM; in [2], 3.43 µM; in test [3] it was 23.6 µM; in test [4], 3.58 µM; in [5], 17.4 µM; in test [6] it was 5.24 µM. Also, the TGI in test [7] was 4.27 µM; in test [8] it was 6.11 µM; in test [9], 12.9 µM; in [10] it was 6.45 µM.

As to `Cn1ncc2c(/N=C/c3cccs3)[nH]c(=S)nc21`, the GI50 in [1] is more than 63.7 µM; in test [2] it was 32.9 µM; in test [3], 80 µM; in test [4], 32.2 µM; in test [5], 41.1 µM; in test [6], 20.3 µM. The GI50 in test [7] is 25.6 µM; in [8], 40.7 µM; in test [9] it was more than 59 µM; in test [10] it was 10.5 µM. Further, the TGI in test [1] was more than 100 µM; in [2], more than 100 µM; in test [3], more than 100 µM; in test [4], more than 100 µM; in [5] it was 99.8 µM; in [6], more than 67.5 µM. The TGI in test [7] was more than 70.5 µM; in test [8] it was more than 100 µM; in test [9] it was more than 100 µM; in test [10], 40.9 µM.

On to `ClCc1ccc(-c2ccc(Cn3cnc4c(Cl)nc(Cl)nc43)cc2)cc1`, for which the GI50 in [1] is 2.63 µM; in [2], 1.41 µM; in test [3], 10.6 µM; in [4] it was 2.14 µM; in [5], 3.32 µM; in [6], 2.76 µM. The GI50 is 1.58 µM in test [7], 2.21 µM in [8], 3.39 µM in test [9] and 8.85 µM in test [10]. In addition, the TGI stood at 7.81 µM in test [1]; 2.9 µM in [2]; 22.6 µM in test [3]; 4.99 µM in test [4]; 15.5 µM in test [5]; 7.14 µM in test [6]. Besides, the TGI in [7] was found to be 2.94 µM; in test [8], 5.28 µM; in test [9], 13.3 µM; in test [10], 28.5 µM.

For `COC(=O)C(C)NP(=O)(OCc1ccc(Cn2cnc3c(=O)[nH]c(N)nc32)cc1)Oc1ccccc1` (stereo unspecified), the GI50 in test [1], in test [2], in test [3], in [4], in [5] and in test [6] was more than 100 µM each time. Moreover, the GI50 in [7], in test [8], in [9] and in test [10] was more than 100 µM each time. For the same compound, the TGI in [1], in [2], in test [3], in test [4], in [5] and in [6] was more than 100 µM each time. Further, the TGI in test [7], in [8], in [9] and in test [10] was more than 100 µM throughout.

For the compound `O=C(Nc1n[nH]c2nc(-c3ccco3)ccc12)C1CC1`, the GI50 in test [1], in test [2], in test [3], in test [4], in [5] and in test [6] was more than 25 µM each time. For the same compound, the GI50 in [7], in test [8], in [9] and in [10] was more than 25 µM in each case. Further, the TGI in test [1], in test [2], in test [3], in test [4], in [5] and in test [6] was more than 25 µM in each case. Further, the TGI in [7], in test [8], in [9] and in test [10] was more than 25 µM each time.

Consider `Cc1n[nH]c(=S)n1/N=C/c1ccc(F)c(Oc2ccccc2)c1`, for which the GI50 was 45.1 µM in test [1]; 69.5 µM in test [2]; more than 100 µM in test [3]; 27.7 µM in [4]; 32.8 µM in test [5]; 41.2 µM in test [6]. Also, the GI50 in [7] was 49.5 µM; in [8], 79.6 µM; in test [9], 44.9 µM; in [10], more than 100 µM. Also, the TGI in test [1] was more than 100 µM; in test [2], more than 100 µM; in test [3], more than 100 µM; in test [4], 65.1 µM; in test [5], 99.4 µM; in test [6] it was more than 100 µM. Also, the TGI in test [7], in test [8], in test [9] and in test [10] was more than 100 µM in each case.

With `CCCc1cc2cc(-n3nc(C)c4c3CC(C)(C)CC4=O)cc(NC3CCC(O)CC3)c2c(=O)[nH]1` (stereo unspecified), the GI50 in [1] is 1.73 µM; in [2], 0.144 µM; in test [3] it was 0.0892 µM; in test [4], 0.782 µM; in test [5], 1.53 µM; in test [6] it was 0.192 µM. The GI50 in [7] is 0.0527 µM; in test [8], 0.423 µM; in [9], more than 39.6 µM; in test [10], 5.36 µM. The TGI in test [1] was 39.6 µM; in [2], more than 100 µM; in test [3], more than 46.6 µM; in test [4], more than 100 µM; in test [5] it was more than 100 µM; in [6] it was 3.76 µM. In addition, the TGI in [7], in test [8], in test [9] and in test [10] was more than 100 µM each time.

`Nc1ncnc2c1nc(-c1ccccc1)n2C1OC(CO)C(O)C1O` (stereo unspecified): the TGI in test [1], in test [2], in test [3], in test [4], in [5] and in test [6] was more than 100 µM in each case. The TGI in test [7], in test [8], in test [9] and in [10] was more than 100 µM in each case.

Regarding `CC#CS(=O)(=O)c1ccccc1`, the TGI in test [1] is 13.9 µM; in test [2], 13.9 µM; in [3], 40.5 µM; in test [4], 15.5 µM; in test [5], 35.4 µM; in [6] it was 22.8 µM. In addition, the TGI in test [7] amounted to 10.2 µM; in [8], 25.2 µM; in test [9], 11.7 µM; in [10], 24.1 µM.

Regarding `C=C1C(=O)O[C@H]2[C@H]1CC/C(Cn1cc(Cn3ccc4ccccc43)nn1)=C\CC[C@@]1(C)O[C@@H]21`, the GI50 was 2.61 µM in [1]; 1.93 µM in test [2]; 16 µM in test [3]; 1.86 µM in test [4]; 1.86 µM in [5]; 1.31 µM in [6]. In addition, the GI50 was 1.64 µM in [7], 1.47 µM in test [8], 1.67 µM in test [9] and 1.53 µM in [10]. In addition, the TGI in test [1] was 15.6 µM; in [2], 3.66 µM; in test [3], 30.1 µM; in [4], 3.35 µM; in test [5] it was 4.22 µM; in test [6], 2.84 µM. For the same compound, the TGI in test [7] was found to be 3.01 µM; in [8] it was 2.98 µM; in test [9] it was 3.46 µM; in test [10] it was 3.06 µM.

Turning to `CN[C@]12CC3(C=CC(=O)C=C3)O[C@@]1(Cc1ccc(OC)cc1)N(C)C(=O)N2`, the GI50 is 10.4 µM in test [1]; 1.93 µM in test [2]; 5.12 µM in [3]; 1.9 µM in test [4]; 4.23 µM in test [5]; 4.2 µM in test [6]. Further, the GI50 in [7] was 4.3 µM; in test [8] it was 0.695 µM; in test [9] it was 3.89 µM; in test [10] it was 3.46 µM. The TGI in test [1] turned out to be 23.3 µM; in test [2] it was 3.61 µM; in test [3] it was 44.2 µM; in test [4], 3.97 µM; in test [5], 19.1 µM; in test [6] it was 15.1 µM. Moreover, the TGI in [7] is 14.9 µM; in [8] it was 4.31 µM; in test [9], 19.1 µM; in test [10], 15.9 µM.

Turning to `O=C(Nc1nccs1)c1cc2c(cc1Cl)Sc1nccn1S2(=O)=O`, the GI50 in [1] was 18.8 µM; in test [2], 15.9 µM; in [3], 24.5 µM; in [4], 19.4 µM; in test [5], 20.6 µM; in test [6], 19.5 µM. The GI50 in [7] is 16.3 µM; in test [8] it was 16.8 µM; in test [9], 16.4 µM; in test [10], 19.6 µM. For the same compound, the TGI in [1] was 35.4 µM; in test [2], 29.4 µM; in test [3] it was 63.9 µM; in [4], 37.5 µM; in test [5], 44.7 µM; in test [6], 36.2 µM. For the same compound, the TGI is 30 µM in test [7], 33.4 µM in [8], 38.6 µM in test [9] and 35.6 µM in test [10].

Take `COc1cc(/C=C/C(=O)c2ccc(Nc3ncnc4ccccc34)cc2)cc(OC)c1`: the GI50 in test [1] was 24.1 µM; in [2], 1.79 µM; in test [3], 3.6 µM; in test [4] it was 4.98 µM; in [5], 51.9 µM; in test [6] it was 13.5 µM. The GI50 in test [7] is 6.71 µM; in test [8], 3.36 µM; in test [9], 4.28 µM; in test [10], 2.45 µM. Also, the TGI was more than 100 µM in [1]; 3.38 µM in [2]; 10.7 µM in test [3]; 18 µM in [4]; more than 100 µM in test [5]; 49.1 µM in test [6]. Moreover, the TGI in [7] was determined as 22.2 µM; in [8] it was 31.6 µM; in test [9], 25.2 µM; in test [10] it was 8.91 µM.

`C=C1C(=O)O[C@H]2[C@H]1CC/C(COC(=O)CCCCCCCCC(=O)OC/C1=C/CC[C@@]3(C)O[C@H]3[C@H]3OC(=O)C(=C)[C@@H]3CC1)=C\CC[C@@]1(C)O[C@@H]21`: the GI50 in test [1] was 4.8 µM; in test [2], 1.9 µM; in test [3], 12 µM; in test [4], 1.9 µM; in test [5], 1.95 µM; in [6] it was 1.92 µM. Further, the GI50 in [7] is 2.03 µM; in test [8] it was 1.99 µM; in test [9] it was 2.46 µM; in test [10], 2.75 µM. The TGI in test [1] came to 19.6 µM; in test [2], 3.58 µM; in [3], 25.2 µM; in [4], 3.95 µM; in test [5] it was 4.29 µM; in test [6], 3.79 µM. Also, the TGI in [7] came to 4.2 µM; in test [8] it was 4.35 µM; in [9], 7.55 µM; in test [10], 7.24 µM.

Source of the values: PubChem BioAssay (NCI).
